# Laboratory results as given in BindingDB's records for doi:10.1021/jm00120a002 (Merck Sharp & Dohme Research Laboratories, 1989).
# Experiment: Half-maximal inhibition of [125I]gastrin binding to guinea pig gastric glands
row,Compound,IC50 [µM]
1,O=C(NC1N=C(c2ccccc2F)c2ccccc2NC1=O)c1ccsc1 (stereo unspecified),> 10
2,CCOC(=O)CN1C(=O)C(NC(=O)c2cc3ccccc3[nH]2)N=C(c2ccccc2F)c2ccccc21 (stereo unspecified),0.12
3,CN1C(=O)C(NC(=O)c2ccc(C(C)(C)C)cc2)N=C(c2ccccc2F)c2ccccc21 (stereo unspecified),6.4
4,O=C(O)CN1C(=O)C(NC(=O)c2cc3ccccc3[nH]2)N=C(c2ccccc2F)c2ccccc21 (stereo unspecified),0.39
5,O=C(NC1N=C(c2ccccc2F)c2ccccc2NC1=O)c1cc2cc(Br)ccc2[nH]1 (stereo unspecified),> 10
6,O=C(NC1N=C(c2ccccc2)c2ccccc2NC1=O)c1ccc2ccccc2c1 (stereo unspecified),14
7,CCOC(=O)CN1C(=O)C(NC=O)N=C(c2ccccc2)c2ccccc21 (stereo unspecified),25
8,CN1C(=O)C(NC(=O)c2ccsc2)N=C(c2ccccc2F)c2ccccc21 (stereo unspecified),11
9,O=C(NC1N=C(c2ccccc2F)c2ccccc2NC1=O)c1ncc2ccccc2n1 (stereo unspecified),> 10
10,O=C(NC1N=C(c2ccccc2F)c2ccccc2N(C(=O)c2ccc(Cl)cc2)C1=O)c1ccc(Cl)cc1 (stereo unspecified),0.55
11,O=C(O)CN1C(=O)C(NC(=O)c2ccc(Cl)cc2)N=C(c2ccccc2F)c2ccccc21 (stereo unspecified),8.2
12,Cc1ccc(C(=O)NC2N=C(c3ccccc3F)c3ccccc3NC2=O)cc1 (stereo unspecified),5
13,O=C(NC1N=C(c2ccccc2)c2ccccc2NC1=O)C1Cc2ccccc2N1 (stereo unspecified),110
14,CC(C)(C)OC(=O)N[C@H](Cc1c[nH]c2ccccc12)C(=O)NC1N=C(c2ccccc2)c2ccccc2NC1=O (stereo partly specified),> 100
15,O=C(NC1N=C(c2ccccc2)c2ccccc2NC1=O)c1ccc(F)cc1 (stereo unspecified),9.4
16,CCCCCc1ccc(C(=O)NC2N=C(c3ccccc3)c3ccccc3NC2=O)cc1 (stereo unspecified),> 100
17,CN1C(=O)C(NC(=O)c2cc3ccccc3n2C)N=C(c2ccccc2F)c2ccccc21 (stereo unspecified),1.6
18,O=C(NC1N=C(c2ccccc2F)c2ccccc2NC1=O)c1ccc(C(F)(F)F)cc1 (stereo unspecified),9.5
19,O=C(NC1N=C(c2ccccc2)c2ccccc2NC1=O)c1ccc(C(F)(F)F)cc1 (stereo unspecified),36
20,O=C(NC1N=C(c2ccccc2F)c2ccccc2NC1=O)c1ccccc1 (stereo unspecified),28
21,O=C(/C=C/c1ccccc1)NC1N=C(c2ccccc2F)c2ccccc2NC1=O (stereo unspecified),3.8
22,CCCc1ccc(C(=O)NC2N=C(c3ccccc3)c3ccccc3NC2=O)cc1 (stereo unspecified),80

row,Compound,IC50 [µM]
1,O=C(NC1N=C(c2ccccc2)c2ccccc2NC1=O)c1cc(Cl)cc(Cl)c1 (stereo unspecified),180
2,O=C(Cc1cccc2sccc12)NC1N=C(c2ccccc2F)c2ccccc2NC1=O (stereo unspecified),3.9
3,O=C(NC1N=C(c2ccccc2)c2ccccc2NC1=O)c1c[nH]c2ccccc12 (stereo unspecified),18
4,O=C(NC1N=C(c2ccccc2)c2ccccc2NC1=O)c1ccc(Cl)cc1 (stereo unspecified),8.2
5,CN1C(=O)C(NC(=O)c2cccc(I)c2)N=C(c2ccccc2F)c2ccccc21 (stereo unspecified),0.39
6,O=C(NC1N=C(c2ccccc2)c2ccccc2NC1=O)c1cccc2ccccc12 (stereo unspecified),29
7,COc1ccc2[nH]c(C(=O)NC3N=C(c4ccccc4F)c4ccccc4NC3=O)cc2c1 (stereo unspecified),> 10
8,O=C1Nc2ccccc2C(c2ccccc2F)=NC1NCc1cc2ccccc2[nH]1 (stereo unspecified),> 10
9,CN1C(=O)C(NC(=O)[C@H](Cc2ccccc2)NC(=O)OC(C)(C)C)N=C(c2ccccc2F)c2ccccc21 (stereo partly specified),1.2
10,CN1C(=O)C(NC(=O)[C@@H](Cc2ccccc2)NC(=O)OC(C)(C)C)N=C(c2ccccc2)c2ccccc21 (stereo partly specified),26
11,CN1C(=O)C(NC(=O)c2ccccc2Cl)N=C(c2ccccc2)c2ccccc21 (stereo unspecified),30
12,O=C1Nc2ccccc2C(c2ccccc2F)=NC1NC(=O)C(O)c1ccccc1 (stereo unspecified),> 10
13,O=C1Nc2ccccc2C(c2ccccc2)=NC1NCCc1c[nH]c2ccccc12 (stereo unspecified),> 100
14,O=C(NC1N=C(c2ccccc2F)c2ccccc2NC1=O)c1ccc[nH]1 (stereo unspecified),25
15,O=C(Cc1c[nH]c2ccccc12)NC1N=C(c2ccccc2)c2ccccc2NC1=O (stereo unspecified),32
16,Cn1c(C(=O)NC2N=C(c3ccccc3F)c3ccccc3NC2=O)cc2ccccc21 (stereo unspecified),6.3
17,O=C(NC1N=C(c2ccccc2)c2ccccc2NC1=O)c1ccc(O)cc1 (stereo unspecified),31
18,O=C(NC1N=C(c2ccccc2)c2ccccc2NC1=O)c1cc2ccccc2[nH]1 (stereo unspecified),4
19,O=C(NC1N=C(c2ccccc2F)c2ccccc2NC1=O)c1ccc([N+](=O)[O-])cc1 (stereo unspecified),> 10
20,CN1C(=O)C(N(C)C(=O)c2ccccc2Cl)N=C(c2ccccc2)c2ccccc21 (stereo unspecified),> 100
21,O=C(NC1N=C(c2ccccc2)c2ccccc2NC1=O)c1ccc(Cl)c(Cl)c1 (stereo unspecified),25
22,O=C(NC1N=C(c2ccccc2F)c2ccccc2NC1=O)c1cc2ccccc2o1 (stereo unspecified),11

row,Compound,IC50 [µM]
1,O=C(NC1N=C(c2ccccc2F)c2ccccc2NC1=O)c1cc2ccccc2[nH]1 (stereo unspecified),4.6
2,CN1C(=O)[C@H](NC(=O)c2cc3ccccc3[nH]2)N=C(c2ccccc2F)c2ccccc21,0.24
3,O=C(NC1N=C(c2ccccc2)c2ccccc2NC1=O)c1ccc(-c2ccccc2)cc1 (stereo unspecified),> 100
4,O=C(NC1N=C(c2ccccc2F)c2ccccc2NC1=O)c1ccc(Cl)cc1 (stereo unspecified),14
5,CN1C(=O)CN=C(c2ccccc2)c2ccccc21,94
6,O=C(CCc1c[nH]c2ccccc12)NC1N=C(c2ccccc2)c2ccccc2NC1=O (stereo unspecified),17
7,CSc1ccc(C(=O)NC2N=C(c3ccccc3)c3ccccc3NC2=O)cc1 (stereo unspecified),8
8,CN(C(=O)c1cc2ccccc2[nH]1)C1N=C(c2ccccc2)c2ccccc2NC1=O (stereo unspecified),> 10
9,COc1ccc(C(=O)NC2N=C(c3ccccc3F)c3ccccc3NC2=O)cc1 (stereo unspecified),5.4
10,CN1C(=O)C(NC(=O)c2ccc(Cl)cc2)[N+]([O-])=C(c2ccccc2F)c2ccccc21 (stereo unspecified),2.4
11,CC1(C(=O)NC2N=C(c3ccccc3F)c3ccccc3NC2=O)C=Cc2ccccc21 (stereo unspecified),> 10
12,CC(C)(C)OC(=O)N[C@H](Cc1ccccc1)C(=O)NC1N=C(c2ccccc2)c2ccccc2NC1=O (stereo partly specified),> 100
13,CN1C(=O)[C@@H](NC(=O)c2ccc(Cl)cc2)N=C(c2ccccc2F)c2ccccc21,0.8
14,CN1C(=O)[C@@H](NC(=O)c2ccc(C(F)(F)F)cc2)N=C(c2ccccc2F)c2ccccc21,0.44
15,CN1C(=O)[C@@H](NC(=O)c2ccc(Br)cc2)N=C(c2ccccc2F)c2ccccc21,0.68
16,CN1C(=O)[C@@H](NC(=O)c2ccc(C#N)cc2)N=C(c2ccccc2F)c2ccccc21,9
17,CC(C)C(=O)N[C@H]1N=C(c2ccccc2)c2ccccc2N(C)C1=O,73
18,CN1C(=O)[C@@H](NC(=O)c2ccccc2I)N=C(c2ccccc2)c2ccccc21,38
19,CN1C(=O)[C@H](NC(=O)c2ccc(C(F)(F)F)cc2)N=C(c2ccccc2)c2ccccc21,4.2
20,CN1C(=O)[C@H](NC(=O)C2CCCCC2)N=C(c2ccccc2)c2ccccc21,1.5
21,CN1C(=O)[C@@H](NC(=O)c2ccccc2Cl)N=C(c2ccccc2)c2ccccc21,130
22,CN1C(=O)[C@@H](NC(=O)C(C)(C)C)N=C(c2ccccc2)c2ccccc21,13

row,Compound,IC50 [µM]
1,CN1C(=O)[C@@H](NC(=O)c2cc3ccccc3[nH]2)N=C(c2ccccc2F)c2ccccc21,0.028
2,CCCCCc1ccc(C(=O)N[C@H]2N=C(c3ccccc3F)c3ccccc3N(C)C2=O)cc1,60
3,CN1C(=O)[C@H](NC(=O)c2ccccc2Cl)N=C(c2ccccc2F)c2ccccc21,3.7
4,CN1C(=O)[C@@H](NC(=O)c2ccc(I)cc2)N=C(c2ccccc2F)c2ccccc21,0.53
5,CN1C(=O)[C@@H](NC(=O)c2cccc(Br)c2)N=C(c2ccccc2F)c2ccccc21,0.75
6,CC(C)CCC(=O)N[C@H]1N=C(c2ccccc2)c2ccccc2N(C)C1=O,130
7,CN1C(=O)[C@@H](NC(=O)/C=C/c2ccccc2)N=C(c2ccccc2)c2ccccc21,0.18
8,CN1C(=O)[C@@H](NC(=O)c2ccc(Br)cc2)N=C(c2ccccc2)c2ccccc21,0.8
9,CN1C(=O)C(NC(=O)C(Cc2ccccc2)NC(=O)OC(C)(C)C)N=C(c2ccccc2F)c2ccccc21 (stereo unspecified),2.9
10,CN1C(=O)[C@H](NC(=O)c2ccccc2Cl)N=C(c2ccccc2)c2ccccc21,7.5
11,CN1C(=O)[C@H](NC(=O)c2ccc(Cl)cc2)N=C(c2ccccc2F)c2ccccc21,5.2
12,CN1C(=O)[C@@H](NC(=O)c2ccccc2I)N=C(c2ccccc2F)c2ccccc21,11
13,"CN1C(=O)C(NC(=O)c2cc3ccccc3[nH]2)N=C(c2ccccc2F)c2ccccc21 (stereo unspecified) [1H-Indole-2-carboxylic acid [5-(2-fluoro-phenyl)-1-methyl-2-oxo-2,3-dihydro-1H-benzo[e][1,4]diazepin-3-yl]-amide]",0.19
14,"CN1C(=O)C(NC(=O)c2ccc(Cl)cc2N)N=C(c2ccccc2)c2ccccc21 (stereo unspecified) [2-Amino-4-chloro-N-(1-methyl-2-oxo-5-phenyl-2,3-dihydro-1H-benzo[e][1,4]diazepin-3-yl)-benzamide.H2O]",1.9
15,"O=C(NC1N=C(c2ccccc2)c2ccccc2NC1=O)c1ccccc1Cl (stereo unspecified) [2-Chloro-N-(2-oxo-5-phenyl-2,3-dihydro-1H-benzo[e][1,4]diazepin-3-yl)-benzamide. 0.02CHCl3]",52
16,"O=C(NC1N=C(c2ccccc2F)c2ccccc2NC1=O)c1ccccc1Cl (stereo unspecified) [2-Chloro-N-[5-(2-fluoro-phenyl)-2-oxo-2,3-dihydro-1H-benzo[e][1,4]diazepin-3-yl]-benzamide: 0.1C4H8O2]",18
17,"O=C(NC1N=C(c2ccccc2)c2ccccc2NC1=O)c1cccc(Cl)c1 (stereo unspecified) [3-Chloro-N-(2-oxo-5-phenyl-2,3-dihydro-1H-benzo[e][1,4]diazepin-3-yl)-benzamide:0.5CHCl3]",19
18,"CN1C(=O)C(NC(=O)c2ccc(Br)cc2)N=C(c2ccccc2)c2ccccc21 (stereo unspecified) [4-Bromo-N-(1-methyl-2-oxo-5-phenyl-2,3-dihydro-1H-benzo[e][1,4]diazepin-3-yl)-benzamide:0.05C3H6O]",1.7
19,"N#Cc1ccc(C(=O)NC2N=C(c3ccccc3)c3ccccc3NC2=O)cc1 (stereo unspecified) [4-Cyano-N-(2-oxo-5-phenyl-2,3-dihydro-1H-benzo[e][1,4]diazepin-3-yl)-benzamide]",22
20,"CC(C)(C)c1ccc(C(=O)NC2N=C(c3ccccc3)c3ccccc3NC2=O)cc1 (stereo unspecified) [4-tert-Butyl-N-(2-oxo-5-phenyl-2,3-dihydro-1H-benzo[e][1,4]diazepin-3-yl)-benzamide: 0.12CHCl3]",40
